The numbers were not newly measured in patent US20120016347A1, “Seroma Control for Surgical Patients” (priority 2010, published 2012), which cites them from elsewhere.

For this series, the system named is pleural effusions. The note with it: Patz (Chest, 1998).

On to bleomycin, for which the “Success rate in completely or partially controlling pleural effusions” value is listed as 72%. For `C[C@H]1c2cccc(O)c2C(O)=C2C(=O)[C@]3(O)C(O)=C(C(N)=O)C(=O)[C@@H](N(C)C)[C@@H]3[C@@H](O)[C@@H]21` [doxyclycline, doxycycline], the “Success rate in completely or partially controlling pleural effusions” value was 79%.
